In PubChem BioAssay (NCI):
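A five-concentration, 48-hour dose response in 96-well plates underlies each endpoint, interpolated linearly between surrounding concentrations. TGI: concentration producing complete growth inhibition.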

Assays:
Assay in all cases: NCI anticancer screen, dose series, 48 h
RXF 393 renal = test system: RXF 393 renal
OVCAR-8 ovarian = test system: OVCAR-8 ovarian
A549 NSCLC = test system: A549 NSCLC
HCT-116 colon = test system: HCT-116 colon
MDA-N = test system: MDA-N
MCF7 breast = test system: MCF7 breast
SF-268 CNS = test system: SF-268 CNS
SF-295 CNS = test system: SF-295 CNS
BT-549 breast = test system: BT-549 breast
HCT-15 colon = test system: HCT-15 colon
SW-620 colon = test system: SW-620 colon
T-47D breast = test system: T-47D breast
OVCAR-3 ovarian = test system: OVCAR-3 ovarian
SF-539 CNS = test system: SF-539 CNS
NCI/ADR-RES ovarian = test system: NCI/ADR-RES ovarian
HS 578T breast = test system: HS 578T breast
MDA-MB-435 = test system: MDA-MB-435
A498 renal = test system: A498 renal
HL-60(TB) leukemia = test system: HL-60(TB) leukemia
SNB-19 CNS = test system: SNB-19 CNS
NCI-H522 lung = test system: NCI-H522 lung
COLO 205 colon = test system: COLO 205 colon
OVCAR-4 ovarian = test system: OVCAR-4 ovarian
EKVX NSCLC = test system: EKVX NSCLC
NCI-H460 lung = test system: NCI-H460 lung
SK-OV-3 ovarian = test system: SK-OV-3 ovarian
UACC-62 melanoma = test system: UACC-62 melanoma
MDA-MB-231 breast = test system: MDA-MB-231 breast
HT29 colon = test system: HT29 colon
786-0 renal = test system: 786-0 renal
K-562 leukemia = test system: K-562 leukemia
SK-MEL-2 melanoma = test system: SK-MEL-2 melanoma
PC-3 prostate = test system: PC-3 prostate
NCI-H226 lung = test system: NCI-H226 lung
HOP-62 NSCLC = test system: HOP-62 NSCLC
SNB-75 CNS = test system: SNB-75 CNS
NCI-H23 lung = test system: NCI-H23 lung
SR leukemia = test system: SR leukemia
CAKI-1 renal = test system: CAKI-1 renal
KM12 colon = test system: KM12 colon
HCC-2998 colon = test system: HCC-2998 colon
ACHN renal = test system: ACHN renal
SK-MEL-5 melanoma = test system: SK-MEL-5 melanoma
UO-31 renal = test system: UO-31 renal
HOP-92 NSCLC = test system: HOP-92 NSCLC
SK-MEL-28 melanoma = test system: SK-MEL-28 melanoma
DU-145 prostate = test system: DU-145 prostate
SN12C renal = test system: SN12C renal
IGROV1 ovarian = test system: IGROV1 ovarian
TK-10 renal = test system: TK-10 renal
MALME-3M melanoma = test system: MALME-3M melanoma
UACC-257 melanoma = test system: UACC-257 melanoma
OVCAR-5 ovarian = test system: OVCAR-5 ovarian
LOX IMVI melanoma = test system: LOX IMVI melanoma
RPMI-8226 leukemia = test system: RPMI-8226 leukemia
U251 CNS = test system: U251 CNS
M14 melanoma = test system: M14 melanoma
MOLT-4 leukemia = test system: MOLT-4 leukemia
CCRF-CEM leukemia = test system: CCRF-CEM leukemia

Measured: TGI

O=C(Oc1ccc(S(=O)(=O)F)cc1F)c1ccccc1Cl
31.1 µM: SK-MEL-5 melanoma
44.6 µM: COLO 205 colon
58 µM: MDA-MB-231 breast
40 µM: UO-31 renal
74.2 µM: SNB-75 CNS
78.8 µM: UACC-257 melanoma
65.1 µM: HOP-92 NSCLC
45.6 µM: RPMI-8226 leukemia
55.8 µM: SR leukemia
84.3 µM: T-47D breast
87.2 µM: SNB-19 CNS
72.9 µM: HT29 colon
53.9 µM: NCI-H23 lung
65.2 µM: HS 578T breast
70.5 µM: NCI-H460 lung
74.6 µM: MDA-MB-435
75.6 µM: OVCAR-3 ovarian
86.4 µM: MALME-3M melanoma
94.5 µM: OVCAR-4 ovarian
64.5 µM: RXF 393 renal
89.4 µM: SF-295 CNS
42 µM: NCI-H522 lung
60.9 µM: KM12 colon
62.1 µM: SF-539 CNS
83.9 µM: MCF7 breast
72.3 µM: EKVX NSCLC
not listed: MOLT-4 leukemia | CCRF-CEM leukemia
> 100 µM: all other assays above

S=C(S)N1CCN(c2cccc(Cl)c2)CC1
not listed: OVCAR-4 ovarian | NCI-H460 lung | SK-OV-3 ovarian | NCI-H226 lung
> 100 µM: all other assays above
